# Where “and” joins values, the source holds several entries; their conditions need not be identical. Equal entries are not always repeated.
# Test system: stroke induced mice
# Experiment: Stroke animal model: transient middle cerebral artery occlusion (tMCAO), infarct size by TTC staining
# Format: in vivo
# Conditions: individual animals, 3.2 mg/kg i.p. at 2 h and 12 h, 1 h occlusion, 23 h reperfusion, C57Bl6 mice
# Experimental: Mice (10-12 wk), wild type C57BI6, 6 animals, were used:
# Test (n=3) stroke induced mouse treated i.p. with inventive compound M4 (N^2-(3,4-dimethylphenyl)-6-((4-(3-methoxyphenyl)piperazin-1-yl)methyl)-1,3,5-triazine-2,4-diamine).
# M4 preparation for intra peritoneal i.p. administration: 3.5 mg of M4 were first dissolved in 1 ml of DMSO. After the substance was totally dissolved, 5 ml of 20% Cremophor ELP in PBS (phosphate buffered saline solution) was added. Thereafter an additional 4 ml of PBS was added. The 20% Cremophor ELP solution was prepared by dissolving 10.5 g of Cremophor in 50 ml of PBS.
# Injection volume of M4: The dose was 3.2 mg/kg, calculated for each animal at each event of administration (2 h and 12 h).
# • 1. Transient middle cerebral artery occlusion (tMCAO) by blocking with a filament for 1 h. • 2. Reperfusion after 1 h by removing filament • 3. Injection of M4 by i.p. after 2 h and repeated injection i.p. after 12 h • 4. Sacrifice the animal after 24 h and infarct size is determined by triphenyl tetrazolium chloride (TTC) staining—Thus the procedure of middle cerebral artery occlusion (MCAO); 1 h occlusion and 23 h reperfusion. • 5. […]
# Mice were killed 24 hours after tMCAO. […] The occurrence of Intra Cerebral Hemorrhage (ICH) was macroscopically assessed on whole brains and again after the 2-mm-thick coronal brain slices were cut (see above) before TTC staining. […]
compound,measurement,value
"COc1cccc(N2CCN(Cc3nc(N)nc(Nc4ccc(C)c(C)c4)n3)CC2)c1 [M4, N^2-(3,4-dimethylphenyl)-6-((4-(3-methoxyphenyl)piperazin-1-yl)methyl)-1,3,5-triazine-2,4-diamine]",Infarct volume,73 mm^3 and 145 mm^3 and 134 mm^3
